Assay results from ChEMBL document CHEMBL4196036, “Benzomorphan scaffold for opioid analgesics and pharmacological tools development: A comprehensive review” (Eur J Med Chem, 2018).

Key:
Mu-type opioid receptor [1] = target: T1, Mu-type opioid receptor (Cavia porcellus, UniProt P97266); assay: Displacement of [3H]DAMGO from MOR in guinea pig brain membranes; format: cell membranes, Membrane
[2] = target: T2, G_PROTEIN_RECEP_F1_2 domain-containing protein (Cavia porcellus, UniProt A0A286XTF2); assay: Displacement of [3H]Naltrindole from DOR in guinea pig brain membranes; format: cell membranes, Membrane
T2 sequence (A0A286XTF2 whole entry): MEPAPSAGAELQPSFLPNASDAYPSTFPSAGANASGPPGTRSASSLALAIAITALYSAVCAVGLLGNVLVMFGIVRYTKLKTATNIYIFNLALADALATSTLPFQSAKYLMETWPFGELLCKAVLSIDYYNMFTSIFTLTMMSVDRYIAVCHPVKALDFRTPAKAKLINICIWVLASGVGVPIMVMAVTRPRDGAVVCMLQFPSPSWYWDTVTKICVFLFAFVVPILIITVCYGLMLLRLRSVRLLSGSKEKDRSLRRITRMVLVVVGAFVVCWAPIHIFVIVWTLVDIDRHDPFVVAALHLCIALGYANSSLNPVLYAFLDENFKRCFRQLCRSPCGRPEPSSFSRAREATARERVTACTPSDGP

[3] = target: T3, Kappa-type opioid receptor (Cavia porcellus, UniProt P41144); assay: Displacement of [3H]U69,593 from KOR in guinea pig brain membranes; format: cell membranes, Membrane
T3 sequence (P41144 whole entry): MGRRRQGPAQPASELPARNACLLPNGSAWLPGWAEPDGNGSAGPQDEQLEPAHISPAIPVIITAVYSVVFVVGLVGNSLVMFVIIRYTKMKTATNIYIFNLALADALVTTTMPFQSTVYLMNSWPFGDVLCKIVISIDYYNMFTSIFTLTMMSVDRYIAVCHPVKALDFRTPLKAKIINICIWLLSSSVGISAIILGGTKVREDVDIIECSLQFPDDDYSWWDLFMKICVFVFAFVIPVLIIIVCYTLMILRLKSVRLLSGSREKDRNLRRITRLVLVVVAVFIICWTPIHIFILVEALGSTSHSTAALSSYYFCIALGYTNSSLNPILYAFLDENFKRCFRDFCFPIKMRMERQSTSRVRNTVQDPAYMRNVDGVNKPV

[4] = target: Kappa-type opioid receptor (Macaca mulatta, UniProt H9FL65); assay: Displacement of [3H]U69,593 from KOR in monkey brain cortex membranes; format: cell membranes
Sequence of Kappa-type opioid receptor (Macaca mulatta, UniProt H9FL65) (H9FL65 whole entry): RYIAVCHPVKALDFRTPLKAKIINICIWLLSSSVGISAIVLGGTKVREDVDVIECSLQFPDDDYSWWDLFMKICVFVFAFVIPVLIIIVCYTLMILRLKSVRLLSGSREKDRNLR

Mu-type opioid receptor [5] = target: Mu-type opioid receptor (Macaca mulatta, UniProt Q9MYW9); assay: Displacement of [3H]DAMGO from MOR in monkey brain cortex membranes; format: cell membranes
Sequence of Mu-type opioid receptor (Macaca mulatta, UniProt Q9MYW9) (Q9MYW9 whole entry): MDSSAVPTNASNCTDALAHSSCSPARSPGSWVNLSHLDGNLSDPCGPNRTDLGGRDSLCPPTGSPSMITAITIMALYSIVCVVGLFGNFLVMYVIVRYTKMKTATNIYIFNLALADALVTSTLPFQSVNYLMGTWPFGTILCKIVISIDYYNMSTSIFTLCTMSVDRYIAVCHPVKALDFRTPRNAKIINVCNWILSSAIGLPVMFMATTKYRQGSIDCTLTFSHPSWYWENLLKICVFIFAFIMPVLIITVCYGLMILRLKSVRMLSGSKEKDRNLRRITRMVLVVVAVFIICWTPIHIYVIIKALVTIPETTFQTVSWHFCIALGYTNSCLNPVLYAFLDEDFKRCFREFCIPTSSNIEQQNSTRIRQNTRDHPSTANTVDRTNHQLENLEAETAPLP

[6] = target: G_PROTEIN_RECEP_F1_2 domain-containing protein (Macaca mulatta, UniProt F7HEV7); assay: Displacement of [3H]naltrindole from DOR in monkey brain cortex membranes; format: cell membranes
Sequence of G_PROTEIN_RECEP_F1_2 domain-containing protein (Macaca mulatta, UniProt F7HEV7) (F7HEV7 whole entry): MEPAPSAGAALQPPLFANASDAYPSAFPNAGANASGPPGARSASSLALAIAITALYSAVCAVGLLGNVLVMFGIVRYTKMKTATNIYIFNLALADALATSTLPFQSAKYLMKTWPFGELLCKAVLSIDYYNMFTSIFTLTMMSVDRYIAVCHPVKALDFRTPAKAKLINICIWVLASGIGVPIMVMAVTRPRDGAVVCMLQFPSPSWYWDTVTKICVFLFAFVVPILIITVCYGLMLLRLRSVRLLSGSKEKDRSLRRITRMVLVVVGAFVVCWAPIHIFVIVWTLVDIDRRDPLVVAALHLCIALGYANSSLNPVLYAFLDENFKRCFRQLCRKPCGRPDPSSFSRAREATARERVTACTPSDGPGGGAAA

Mus musculus [7] = assay: Antinociceptive activity in sc dosed ICR mouse after 20 mins by tail flick test; format: functional
Mus musculus [8] = assay: Analgesic activity in sc dosed ICR mouse after 30 mins by hot plate test; format: functional; conditions: 0.5 h
Mus musculus [9] = species: Mus musculus; assay: Antinociceptive activity in mouse by paraphenylquinone assay; format: functional
[10] = target: T4, Kappa-type opioid receptor (Homo sapiens, UniProt P41145); assay: Binding affinity to KOR (unknown origin)
T4 sequence (P41145 whole entry): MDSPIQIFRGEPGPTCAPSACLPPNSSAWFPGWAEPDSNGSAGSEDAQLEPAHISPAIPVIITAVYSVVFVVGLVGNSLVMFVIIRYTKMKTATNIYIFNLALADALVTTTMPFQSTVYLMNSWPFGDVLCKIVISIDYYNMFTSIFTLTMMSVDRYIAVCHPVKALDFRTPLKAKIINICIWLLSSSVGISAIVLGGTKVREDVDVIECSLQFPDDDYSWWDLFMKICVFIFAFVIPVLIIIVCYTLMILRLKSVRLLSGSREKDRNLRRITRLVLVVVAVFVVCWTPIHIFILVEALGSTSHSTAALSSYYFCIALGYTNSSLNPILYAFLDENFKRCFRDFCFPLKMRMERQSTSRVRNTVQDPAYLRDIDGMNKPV

Homo sapiens [11] = species: Homo sapiens; assay: Selectivity ratio of Ki for MOR (unknown origin) to Ki for KOR (unknown origin)
Homo sapiens [12] = species: Homo sapiens; assay: Selectivity ratio of Ki for DOR (unknown origin) to Ki for KOR (unknown origin)
Mus musculus [13] = assay: Antinociceptive activity in sc dosed mouse by abdominal constriction assay; format: functional
[14] = target: T2, G_PROTEIN_RECEP_F1_2 domain-containing protein; assay: Displacement of [3H]Naltrindole from DOR in guinea pig brain membranes after 3 hrs by scintillation counting method; format: cell membranes, Membrane
[15] = target: T3, Kappa-type opioid receptor; assay: Displacement of [3H]U69,593 from KOR in guinea pig brain membranes after 60 mins by scintillation counting method; format: cell membranes, Membrane
Mu-type opioid receptor [16] = target: T5, Mu-type opioid receptor (Homo sapiens, UniProt P35372); assay: Displacement of [3H]DAMGO from MOR (unknown origin) expressed in CHO cell membranes
T5 sequence (P35372 whole entry): as the sequence (Q9MYW9 whole entry) above, with V6A, H19Y, R26P, V119A, S154F, S227T, I293V, D344N counted along it

[17] = target: T6, Delta-type opioid receptor (Homo sapiens, UniProt P41143); assay: Displacement of [3H]naltrindole from DOR (unknown origin) expressed in CHO cell membranes
T6 sequence (P41143 whole entry): as the sequence (F7HEV7 whole entry) above, with A10E, F27C, N29S, K112E, I179V counted along it

[18] = target: T4, Kappa-type opioid receptor; assay: Displacement of [3H]U69,593 from KOR (unknown origin) expressed in CHO cell membranes
Mu-type opioid receptor [19] = target: T1, Mu-type opioid receptor; assay: Displacement of [3H]DAMGO from MOR in guinea pig brain membranes after 60 mins by scintillation counting method; format: cell membranes, Membrane
Mu-type opioid receptor [20] = target: T5, Mu-type opioid receptor; assay: Displacement of [3H]-diprenorphine from MOR (unknown origin) after 1 to 2 hrs by scintillation counting method
[21] = target: T4, Kappa-type opioid receptor; assay: Displacement of [3H]U69,593 from human KOR expressed in HEK293 cell membranes after 1 hr by scintillation counting method
[22] = target: T4, Kappa-type opioid receptor; assay: Agonist activity at human KOR expressed in HEK293 cell membranes assessed as stimulation of [35S]GTPgammaS binding after 30 mins by scintillation counting method relative to control; format: functional
[23] = target: T4, Kappa-type opioid receptor; assay: Agonist activity at human KOR expressed in HEK293 cell membranes assessed as stimulation of [35S]GTPgammaS binding after 30 mins by scintillation counting method; format: functional
Mu-type opioid receptor [24] = target: T5, Mu-type opioid receptor; assay: Binding affinity to MOR (unknown origin)
Mus musculus [25] = assay: Antinociceptive activity in sc dosed mouse assessed as inhibition of PPQ-induced stretching response pretreated for 10 mins followed by PPQ treatment measured for 1 min at 10 to 15 mins post PPQ treatment; format: functional
[26] = target: T6, Delta-type opioid receptor; assay: Binding affinity to DOR (unknown origin)

T1 sequence (P97266 whole entry): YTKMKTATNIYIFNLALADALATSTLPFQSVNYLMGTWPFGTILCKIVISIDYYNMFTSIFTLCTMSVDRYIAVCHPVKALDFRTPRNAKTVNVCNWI

## C[C@H]1[C@H]2Cc3ccc(NC=O)cc3[C@]1(C)CCN2CC1CC1
Mu-type opioid receptor [1]
  Ki: 1.1 nM
[2]
  Ki: 9.8 nM
[3]
  Ki: 0.49 nM

## C=CCCN1CC[C@]2(C)c3cc(O)ccc3C[C@@H]1[C@@H]2C
[4]
  Ki: 1.3 nM
Mu-type opioid receptor [5]
  Ki: 2.1 nM
[6]
  Ki: 21 nM
Mus musculus [7]
  ED50: 0.05 mg/kg
Mus musculus [8]
  ED50: 0.3 mg/kg
Mus musculus [9]
  ED50: 0.8 mg/kg

## CCCCC(=N)NCCCCCNC(=O)[C@H](CC(C)C)NC(=O)CNC(=O)[C@@]1(c2ccccc2)C[C@H]1CN1CC[C@]2(C)c3cc(O)ccc3C[C@@H]1[C@@H]2C
[10]
  Ki: 6.7 nM
Homo sapiens [11]
  Ratio Ki: 375
Homo sapiens [12]
  Ratio Ki: 408
Mus musculus [13]
  ED50: 0.88 mg/kg

## C[C@H]1[C@H]2Cc3ccc(O)cc3[C@@]1(C)CCN2CC1CC1
[14]
  Ki: 0.58 nM
[15]
  Ki: 0.052 nM

## CCCCC(=N)NCCCCCCNC(=O)[C@H](CC(C)C)NC(=O)CNC(=O)[C@@]1(c2ccccc2)C[C@H]1CN1CC[C@]2(C)c3cc(O)ccc3C[C@@H]1[C@@H]2C
[10]
  Ki: 5.3 nM
Homo sapiens [11]
  Ratio Ki: 408
Homo sapiens [12]
  Ratio Ki: 424
Mus musculus [13]
  ED50: 1.1 mg/kg

## C[C@H]1[C@H]2Cc3cc4sc(N)nc4cc3[C@@]1(C)CCN2CC1CCC1
Mu-type opioid receptor [16]
  Ki: 8.3 nM
[17]
  Ki: 93 nM
[18]
  Ki: 0.49 nM

## C[C@H]1[C@H]2Cc3cc4sc(N)nc4cc3[C@@]1(C)CCN2CC1CC1
Mu-type opioid receptor [16]
  Ki: 48 nM
[17]
  Ki: 940 nM
[18]
  Ki: 6.7 nM

## C[C@H]1[C@H]2Cc3ccc(O)cc3[C@@]1(C)CCN2C[C@@H]1C[C@@]1(C(=O)NCc1ccccc1)c1ccccc1
[10]
  Ki: 35 nM

## COc1ccc(Nc2ccc3c(c2)C2(C)CCN(CC4CC4)C(C3)C2C)cc1 (racemic)
Mu-type opioid receptor [19]
  Ki: 0.47 nM
[14]
  Ki: 8.3 nM
[15]
  Ki: 0.29 nM

## C[C@H]1[C@H]2Cc3ccc(O)cc3[C@@]1(C)CCN2CCC#N
[4]
  Ki: 0.4 nM
Mu-type opioid receptor [5]
  Ki: 9.8 nM
[6]
  Ki: 4.2 nM
Mus musculus [7]
  ED50: 0.3 mg/kg
Mus musculus [8]
  ED50: 0.1 mg/kg
Mus musculus [9]
  ED50: 0.05 mg/kg

## C=CCN1CC[C@]2(C)c3cc(O)ccc3C[C@@H]1[C@@H]2C
[4]
  Ki: 0.3 nM
Mu-type opioid receptor [5]
  Ki: 0.9 nM
[6]
  Ki: 5.5 nM
Mus musculus [9]
  ED50: 0.1 mg/kg

## C[C@H]1[C@H]2Cc3ccc(Nc4ccccc4)cc3[C@@]1(C)CCN2CC1CC1
[14]
  Ki: 5.2 nM

## C=CC[N+]1(C)CC[C@]2(C)c3cc(O)ccc3C[C@@H]1[C@@H]2C (some centres undefined)
Mu-type opioid receptor [20]
  Ki: 56.4 nM
[21]
  Ki: 10.3 nM
[22]
  Emax: 27.3%
[23]
  EC50: 268 nM

## C[C@H]1[C@H]2Cc3ccc(O)cc3[C@@]1(C)CCN2CCCC#N
[4]
  Ki: 0.4 nM
Mu-type opioid receptor [5]
  Ki: 23 nM
[6]
  Ki: 5.8 nM
Mus musculus [7]
  ED50: 0.4 mg/kg
Mus musculus [8]
  ED50: 1 mg/kg
Mus musculus [9]
  ED50: 0.01 mg/kg

## CC1C2Cc3ccc(NC=O)cc3C1(C)CCN2CC1CC1 (racemic)
Mu-type opioid receptor [1]
  Ki: 1.9 nM

## CC1C2Cc3ccc(C(N)=O)cc3C1(C)CCN2CC1CC1 (racemic)
[14]
  Ki: 8.3 nM

## C[C@H]1[C@H]2Cc3ccc(O)cc3[C@@]1(C)CCN2C[C@@H]1CCCO1
[14]
  Ki: 2.5 nM

## C[C@H]1[C@H]2Cc3ccc(O)cc3[C@@]1(C)CC[N+]2(C)CC1CC1 (some centres undefined)
Mu-type opioid receptor [20]
  Ki: 23 nM
[21]
  Ki: 4.33 nM
[22]
  Emax: 50%
[23]
  EC50: 77.3 nM

## CC1C2Cc3ccc(Nc4cccnc4)cc3C1(C)CCN2CC1CC1 (racemic)
Mu-type opioid receptor [19]
  Ki: 0.64 nM
[14]
  Ki: 21 nM
[15]
  Ki: 0.5 nM

## C[C@H]1[C@H]2Cc3ccc(O)cc3[C@@]1(C)CCN2C[C@@H]1C[C@@]1(CN1CCCCC1)c1ccccc1
[10]
  Ki: 179 nM
Mu-type opioid receptor [24]
  Ki: 45 nM

## C[C@H]1[C@H]2Cc3ccc(N)cc3[C@@]1(C)CCN2CC1CC1
[14]
  Ki: 12 nM

## CC1C2Cc3ccc(O)cc3C1(C)CCN2CC1CC1 (racemic)
[14]
  Ki: 1.1 nM
[15]
  Ki: 0.18 nM

## C#CCCN1CC[C@]2(C)c3cc(O)ccc3C[C@@H]1[C@@H]2C
[4]
  Ki: 1.4 nM
Mu-type opioid receptor [5]
  Ki: 4.6 nM
[6]
  Ki: 10 nM
Mus musculus [7]
  ED50: 0.05 mg/kg
Mus musculus [8]
  ED50: 0.04 mg/kg
Mus musculus [9]
  ED50: 0.1 mg/kg

## C[C@H]1[C@H]2Cc3ccc(O)cc3[C@@]1(C)CCN2CCCCCCO
Mus musculus [25]
  ED50: 1.9 mg/kg

## CCC12CCN(CC3CC3)C(C(=O)c3ccc(O)cc31)C2C (racemic)
[14]
  Ki: 3.4 nM
Mu-type opioid receptor [24]
  Ki: 0.78 nM
[26]
  Ki: 3.4 nM

## CCC12CCN(CC3CC3)C(C(=O)c3ccc(NC=O)cc31)C2C (racemic)
Mu-type opioid receptor [1]
  Ki: 6.1 nM

## C[C@H]1[C@H]2C(=O)c3ccc(O)cc3[C@@]1(C)CCN2CC1CCCO1 (some centres undefined)
[10]
  Ki: 720 nM
Mu-type opioid receptor [24]
  Ki: 2900 nM
[26]
  Ki: > 10000 nM
